Measured values as given in patent US20130274104A1, “AGROCHEMICAL MIXTURES FOR INCREASING THE HEALTH OF A PLANT” (BASF SE, priority 2010, published 2013).

Legend:
Format in all cases: in vivo
Maize (corn) = experiment: Maize field trials 2009, grain yield as indicator of plant health; conditions: BBCH 55/57; for Yield (kg/ha): seven US locations
Method: Maize (corn) was grown in 2009 at seven locations in the U.S.A: Wyoming, Ill., Carlyle, Ill., Sparta, Ill., Manilla, Iowa, Blue Earth, Minn., Aurora, Nebr., and Tekamah, Nebr. The maize crop was planted at the local standard seeding rate with local standard row spacing. Each trial was set up as randomized complete block design with 8 replications. Plots consisted of 6-8 rows with the center two rows treated and harvested. Harvested plot size was at minimum 18.48 m^2.
The active ingredients were used as formulations. The formulations were used in the dose rates given below. The products were applied at tassel emergence (BBCH 55/57). […] The untreated control plots were treated with water only.
Grain yield (kg per ha) as an indicator for the health of a plant was assessed by harvesting the plants in the center rows of a plot (table 1). The efficacy was calculated as % increase of yield in the treatments compared to the untreated control using the following formula:
(§1) E=a/b−1•100 • a corresponds to the grain yield of the treated plants in kg/ha and • b corresponds to the grain yield of the untreated (control) plants in kg/ha

Soybeans [1] = experiment: Soybean field trials 2009, grain yield as indicator of plant health
Method: (§2) Soybeans were grown in 2009 at eight locations in the U.S.A.: Jefferson, I A, Seymour, Ill., Sparta, Ill., Wyoming, Ill., Sheridan, Ind., Ozora, Mo., York, Nebr., and Centerville, S. Dak. The soybeans were planted at the local standard seeding rate with local standard row spacing. Each trial was setup as randomized complete block design with 6 replications. Plots consisted of 4 rows with the center two rows treated and harvested. Harvested plot size was minimum 15 m^2.
The active ingredients were used as formulations. The formulations were used in the dose rates given below. The products were applied when the soybeans had developed four to six trifoliates.
The mixture comprising pyraclostrobin and harpinαβ as shown in table 2 below was applied as a tankmix of both formulations.
Grain yield (kg per ha) was assessed as an indicator of plant health (table 2) by harvesting the plants in the center rows of a plot. The efficacy was calculated as % increase of yield in the treatments compared to the untreated control:
as §1

Soybeans [2] = experiment: Soybean leaf chlorophyll content, FIELD SCOUT CM1000 chlorophyll meter, Sparta, Ill.; conditions: Harpinαβ 70 g/ha, Pyraclostrobin 0.44 l/ha
Method: as §2
The active ingredients were used as formulations. The formulations were used in the dose rates given below. The products were applied when the soybeans had developed four to six trifoliates. Pyraclostrobin (compound A) was applied once as HEADLINE® (250 g active per liter; EC formulation) with a product rate of 0.44 I/ha.
The harpinαβ peptide (compound B) was applied as the experimental WG formulation EBC-351 (1% active ingredient) with a product rate of 70 g/ha. The mixture comprising pyraclostrobin and harpinαβ as shown in table 2 below was applied as a tankmix of both formulations.
At the Sparta, Ill., location, the chlorophyll content (a well known indicator of the health of a plant) of 5 plants in a plot was measured with a FIELD SCOUT CM1000™ (Spectrum Technologies, Plainfield, Ill.) chlorophyll meter. Values were reported as a mean value per plot. The FIELD SCOUT CM1000™ senses light at wavelengths of 700 nm and 840 nm to estimate quantity of chlorophyll in leaves. The ambient and reflected light at each wavelength is measured. Light absorbtion at 700 nm by chlorophyll reduces the reflection at this wavelength whereas the light at 840 nm is unaffected and serves as an indication of light reflection due to physical characteristics of the leaf like a hairy leaf surface. Subsequently, a chlorophyll index value (0-999) is calculated from the measured ambient and reflected light data.
Based on the index values the efficacy of the treatments were calculated as described for the grain yield above. Similarly, the expected efficacy was estimated using Colby's formula as described above.

In the case of `COC(=O)N(OC)c1ccccc1COc1ccn(-c2ccc(Cl)cc2)n1` [Pyraclostrobin], the “OE [%] (Observed efficacy, % increase of yield compared to the untreated control)” value (Maize (corn); Harpinαβ 35 g/ha, Pyraclostrobin 0.3 l/ha, alone or combined) is reported as 1.10%, the “OE [%] (Observed efficacy, % increase of yield compared to the untreated control)” value (Maize (corn); Pyraclostrobin 0.6 l/ha, Harpinαβ 35 g/ha in the combination) is reported as 0.10% and the “Yield (kg/ha)” value (Maize (corn); product rates Harpinαβ 35 g/ha (1%), Pyraclostrobin 0.3 l/ha (250 g/l), alone or combined) is reported as 13218.9 kg/ha. The “Yield (kg/ha)” value (Maize (corn); product rates Pyraclostrobin 0.6 l/ha (250 g/l), Harpinαβ 35 g/ha (1%) in the combination) was 13087.1 kg/ha, the “OE [%] (Observed efficacy, % increase of yield compared to the untreated control)” value (Soybeans [1]; Harpinαβ 70 g/ha, Pyraclostrobin 0.44 l/ha, average of all trials) was 0.1% and the “effect on grain yield, in words” value (Soybeans [1]; Pyraclostrobin 0.44 l/ha applied at early soybean development) was “did not increase the grain yield on an average”. The “Yield (kg/ha)” value (Soybeans [1]; product rates Harpinαβ 70 g/ha (1%), Pyraclostrobin 0.44 l/ha (250 g/l), four to six trifoliates, eight US locations) was 3319 kg/ha, the “effect on leaf chlorophyll content, in words” value (Soybeans [2]) was “increases the chlorophyll content” and the “OE [%] (Observed efficacy, chlorophyll index compared to the untreated control)” value (Soybeans [2]; Sparta, Ill.) was 14.13%. For the same compound, the “CC [0-999] (Chlorophyll Content, chlorophyll index value)” value (Soybeans [2]; Sparta, Ill., mean value per plot, 5 plants) was 773.50.
